Measured values reported in patent publication US12610947B2, “Tobacco axillary bud growth inhibitors and methods of inhibiting growth of tobacco axillary buds” (Drexel Chemical Company, priority 2020, dated 2026).

Columns and labels:
tobacco = test: Example 4 (Farm A and Farm B): phytotoxicity on a scale of 0 to 5; conditions: in vivo
Description: (§1) A fourth study was conducted simultaneously by two separate farms (designated Farm A and Farm B) to further assess the effectiveness of the various treatments including under varying conditions.
The overall study was designed in random blocks. The treatments utilized were Biosucker, Bioantak (37 DOT), Antak-68.5, Beloukha, Sharpen 33%, and a control treatment that was untreated. On each farm, each test plot was formed by a single line of 20 plants. Each treatment was applied to three separate plots on each farm. […] The first application was applied when the first axillary shoots were observed. Additional applications were applied when the new axillary shoots were observed. Shoots longer than 3 cm were manually removed at the time of each application. The applications were performed using a manual backpack sprayer, spraying at a low pressure above the plant toward the stalk so that the composition ran down the stalk, contacting the leaf axils. Approximately 20 milliliters of composition were applied to each plant. The phytotoxicity of the treatment compositions was assessed and recorded on a scale of 0 to 5 based on visible symptoms. The number and size of the axil shoots was recorded every 6 to 8 days following the initial treatment application. […] An estimated average length of shoots in each plot could then be calculated according to the number of shoots assigned to each level. […]

[1] = tested on: axillary shoots of tobacco; test: Example 4 (Farm A and Farm B): axillary shoot length, effectiveness vs non-treated control, effective period; format: in vivo; conditions: Farm A, before second application
Description: as §1
The overall study was designed in random blocks. The treatments utilized were Biosucker, Bioantak (37 DOT), Antak-68.5, Beloukha, Sharpen 33%, and a control treatment that was untreated. On each farm, each test plot was formed by a single line of 20 plants. Each treatment was applied to three separate plots on each farm. […] The first application was applied when the first axillary shoots were observed. Additional applications were applied when the new axillary shoots were observed. Shoots longer than 3 cm were manually removed at the time of each application. […] The phytotoxicity of the treatment compositions was assessed and recorded on a scale of 0 to 5 based on visible symptoms. The number and size of the axil shoots was recorded every 6 to 8 days following the initial treatment application. […] An estimated average length of shoots in each plot could then be calculated according to the number of shoots assigned to each level.
The results of the length of axillary shoots measured at Farm A and Farm B are shown in Table 15 and Table 16, respectively. […]
The effectiveness of each treatment method and each farm was calculated as compared to the non-treated control group.

[2] = tested on: axillary shoots of TH241 tobacco; test: Example 3 plot study: axillary shoot length and effectiveness vs non-treated control; format: in vivo; conditions: for Axillary Shoot Length Results: level assigned by shoot length; for Axillary Shoot Length Results / Effectiveness Results: dosage and applications per Table 8; for Effectiveness Results: compared to the non-treated control group; for Effectiveness: compared to non-treated control
Description: A third study was conducted comparing the effects of various treatment compositions on TH241 tobacco. The study was designed in random blocks. Each test plot was formed by two rows of ten tobacco plants. Each treatment was applied to three separate plots. […] The first application was performed when the first axillary shoots were observed. Additional applications were performed when new axillary shoots were observed. Shoots longer than 3 cm were manually removed at the time of each application. The applications were performed using a manual backpack sprayer, spraying at a low pressure above the plant toward the stalk so that the composition ran down the stalk, contacting the leaf axils. Approximately 13 to 26 milliliters of composition were applied to each plant. The phytotoxicity of the treatment compositions was assessed and recorded on a scale of 0 to 5 based on visible symptoms. The number and size of the axil shoots was recorded every 7 to 14 days following the initial treatment application. Axillary shoots were assigned a level according to their length. Shoots less than 3 cm in length were assigned to level 1. Shoots between 3 and 15 cm were assigned to level 2. Shoots between 15 and 30 cm were assigned to level 3. Shoots between 30 and 45 cm were assigned to level 4. Shoots between 45 and 60 cm were assigned to level 5. And shoots greater than 60 cm were assigned to level 6. An estimated average length of shoots in each plot could then be calculated according to the number of shoots assigned to each level. […] For this reason, treatments 1, 3, 4, and 5 were applied three times; treatments 2, 6, and 7 were applied twice; and treatments 8 and 9 were applied only once. The effectiveness of each treatment method was calculated as compared to the non-treated control group.

TH241 tobacco = test: Example 3 plot study: phytotoxicity on a scale of 0 to 5; format: in vivo; conditions: for Phytotoxicity: scale of 0 to 5
Description: A third study was conducted comparing the effects of various treatment compositions on TH241 tobacco. The study was designed in random blocks. Each test plot was formed by two rows of ten tobacco plants. Each treatment was applied to three separate plots. […] The first application was performed when the first axillary shoots were observed. Additional applications were performed when new axillary shoots were observed. Shoots longer than 3 cm were manually removed at the time of each application. The applications were performed using a manual backpack sprayer, spraying at a low pressure above the plant toward the stalk so that the composition ran down the stalk, contacting the leaf axils. Approximately 13 to 26 milliliters of composition were applied to each plant. The phytotoxicity of the treatment compositions was assessed and recorded on a scale of 0 to 5 based on visible symptoms. The number and size of the axil shoots was recorded every 7 to 14 days following the initial treatment application. Axillary shoots were assigned a level according to their length. Shoots less than 3 cm in length were assigned to level 1. Shoots between 3 and 15 cm were assigned to level 2. Shoots between 15 and 30 cm were assigned to level 3. Shoots between 30 and 45 cm were assigned to level 4. Shoots between 45 and 60 cm were assigned to level 5. And shoots greater than 60 cm were assigned to level 6. An estimated average length of shoots in each plot could then be calculated according to the number of shoots assigned to each level.
Phytotoxicity was assessed 9 days and 26 days after the first application of each treatment. […] Only mild symptoms of phytotoxicity were observed on the remaining plants. […] The phytotoxicity was likely more apparent due to the fact that by day 26, two pelargonic acid treatments had already been performed. […] No further evaluations were carried out.

CCCCCCCCC(=O)O [Pelargonic acid, pelargonic acid]
phytotoxicity symptoms (tobacco): highest levels of burns and deformation | day until which shoot length was the same as the standard treatment [1]: 27 days | Axillary Shoot Length Results ([2]; 5-Aug, D + 19 days): 1.3 Cd | Axillary Shoot Length Results ([2]; 12-Aug, D + 26 days): 2.6 C | Axillary Shoot Length Results ([2]; 21-Aug, D + 35 days): 1.2 Abc | Axillary Shoot Length Results ([2]; 26-Jul, D + 9 days): 1.2 C | Axillary Shoot Length Results ([2]; 29-Aug, D + 43 days): 2.3 bcde | Effectiveness Results ([2]; Aug 5, D + 19 days): 61% | Effectiveness Results ([2]; Aug 12, D + 26 days): 37% | Effectiveness Results ([2]; Aug 21, D + 35 days): 80% | Effectiveness Results ([2]; Aug 29, D + 43 days): 61% | Effectiveness Results ([2]; July 26, D + 9 days): 39% | Effectiveness ([2]; Oct. 10, D + 85 days): 8% | Axillary Shoot Length Results ([2]; Oct. 10, D + 85 days): 5.5 B | Effectiveness Results ([2]; Sept. 11, D + 56 days): 35% | Axillary Shoot Length Results ([2]; Sept. 11, D + 56 days): 3.9 C | Effectiveness Results ([2]; Sept. 24, D + 69 days): 16% | Axillary Shoot Length Results ([2]; Sept. 24, D + 69 days): 5.1 C | Effectiveness ([2]; Sept. 30, D + 75 days): 9% | Axillary Shoot Length Results ([2]; Sept. 30, D + 75 days): 5.4 B | shoot length ([2]; after only 9 days): ~3 cm | Phytotoxicity (TH241 tobacco; August 12, D + 26 days): 2.0 B | symptoms of phytotoxicity (TH241 tobacco; August 21, after a third application): symptoms of phytotoxicity were still more pronounced | Phytotoxicity (TH241 tobacco; July 26, D + 9 days): 1.6 C
